Broadly, the MIC is the least concentration at which growth counts as inhibited. High values mean a need for much substance, low ones inhibition by little substance.

Results on eight compounds are retold here after ChEMBL document CHEMBL6121016, “Design, Synthesis, and Biological Evaluation of 1,3,4-Thiadiazole Derivatives as Novel Potent Peptide Deformylase Inhibitors for Combating Drug-Resistant Gram-Positive and -Negative Bacteria” (J Med Chem, 2025).

What all share (assay type): functional
Settings in all cases: time 16-18 hrs

Experiment [1] concerns Staphylococcus aureus. The experiment in a line: Antibacterial activity against methicillin-resistant Staphylococcus aureus ATCC 33591 after 16 to 18 hrs by broth microdilution method. On the technique in general: In broth dilution the organism is exposed to a series of concentrations in liquid medium.
Experiment [2] has as its system Staphylococcus aureus. The experiment in a line: Antibacterial activity against methicillin-resistant Staphylococcus aureus ATCC 43300 after 16 to 18 hrs by broth microdilution method.
Experiment [3] deals with Staphylococcus aureus. Description: Antibacterial activity against methicillin-resistant Staphylococcus aureus Bio-090770 after 16 to 18 hrs by broth microdilution method.
Experiment [4] relates to Staphylococcus aureus. The experiment in a line: Antibacterial activity against methicillin-susceptible Staphylococcus aureus ATCC 29213 after 16 to 18 hrs by broth microdilution method.
Experiment [5] has as its system Staphylococcus aureus. The experiment in a line: Antibacterial activity against methicillin-susceptible Staphylococcus aureus ATCC 25923 after 16 to 18 hrs by broth microdilution method.
In experiment [6] the test system is Staphylococcus aureus. The experiment in a line: Antibacterial activity against methicillin-susceptible Staphylococcus aureus ATCC 13709 after 16 to 18 hrs by broth microdilution method.
Experiment [7] deals with Staphylococcus epidermidis. The experiment in a line: Antibacterial activity against Staphylococcus epidermidis after 16 to 18 hrs by broth microdilution method.
For a further experiment, the system named is Escherichia coli. Description: Antibacterial activity against Escherichia coli ATCC 25922 after 16 to 18 hrs by broth microdilution method.
In the next experiment the test system is Klebsiella pneumoniae. The experiment in a line: Antibacterial activity against Klebsiella pneumoniae CICC 21611 after 16 to 18 hrs by broth microdilution method.
In experiment [8] the test system is Acinetobacter baumannii. The experiment in a line: Antibacterial activity against Acinetobacter baumannii Bio 34235 after 16 to 18 hrs by broth microdilution method.
The test system of experiment [9] is Acinetobacter baumannii. The experiment in a line: Antibacterial activity against drug-resistant Acinetobacter baumannii Bio 53272 after 16 to 18 hrs by broth microdilution method.

The structures appear in SMILES notation. Converted amounts (≈) assume the structure as drawn.

With `CCCC[C@H](CN(O)C=O)C(=O)N1CCC[C@H]1c1nnc(-c2ccsc2)s1`, the minimum inhibitory concentration (MIC) in the experiment on Staphylococcus aureus [1] is 0.25 µg/mL (≈ 0.612 µM); against Staphylococcus aureus [2], 0.25 µg/mL (≈ 0.612 µM); in the experiment with Staphylococcus aureus [3], 4 µg/mL (≈ 9.79 µM); in the experiment with Staphylococcus aureus [4], 1 µg/mL (≈ 2.45 µM); in the experiment with Staphylococcus aureus [5], 1 µg/mL (≈ 2.45 µM); against Staphylococcus aureus [6] it was 4 µg/mL (≈ 9.79 µM). Also, the MIC in [7] came out at 2 µg/mL (≈ 4.9 µM); against Escherichia coli, 64 µg/mL (≈ 157 µM); in the experiment on Klebsiella pneumoniae it was 32 µg/mL (≈ 78.3 µM); in the experiment on Acinetobacter baumannii [8] it was 32 µg/mL (≈ 78.3 µM); in the experiment with Acinetobacter baumannii [9], 16 µg/mL (≈ 39.2 µM).
For `CCCC[C@H](CN(O)C=O)C(=O)N1CCC[C@H]1c1nnc(-c2ccc(Br)cc2)s1`, the MIC in the experiment with Staphylococcus aureus [1] came to 0.5 µg/mL (≈ 1.04 µM); in the experiment on Staphylococcus aureus [2], 0.5 µg/mL (≈ 1.04 µM); in the experiment with Staphylococcus aureus [3], 1 µg/mL (≈ 2.08 µM); in the experiment on Staphylococcus aureus [4], 1 µg/mL (≈ 2.08 µM); with Staphylococcus aureus [5] it was 0.5 µg/mL (≈ 1.04 µM); in the experiment with Staphylococcus aureus [6], 0.5 µg/mL (≈ 1.04 µM). Moreover, the minimal inhibitory concentration (MIC) in [7] was 1 µg/mL (≈ 2.08 µM); against Escherichia coli, over 16 µg/mL; in the experiment with Klebsiella pneumoniae, over 16 µg/mL; with Acinetobacter baumannii [8], over 16 µg/mL; with Acinetobacter baumannii [9] it was 16 µg/mL (≈ 33.2 µM).
Turning to `CCCC[C@H](CN(O)C=O)C(=O)N1CCC[C@H]1c1nnc(-c2ccccc2)s1`, the MIC was found to be 2 µg/mL (≈ 4.97 µM) against Staphylococcus aureus [1]; 4 µg/mL (≈ 9.94 µM) against Staphylococcus aureus [2]; 8 µg/mL (≈ 19.9 µM) with Staphylococcus aureus [3]; 8 µg/mL (≈ 19.9 µM) in the experiment with Staphylococcus aureus [4]; 4 µg/mL (≈ 9.94 µM) with Staphylococcus aureus [5]; 2 µg/mL (≈ 4.97 µM) against Staphylococcus aureus [6]. The MIC was 4 µg/mL (≈ 9.94 µM) in experiment [7]; over 16 µg/mL against Escherichia coli; over 16 µg/mL against Klebsiella pneumoniae; over 16 µg/mL against Acinetobacter baumannii [8]; over 16 µg/mL with Acinetobacter baumannii [9].
In the case of `CCCC[C@H](CN(O)C=O)C(=O)N1CCC[C@H]1c1nnc(C2CCOC2)s1` (stereo partly drawn), the MIC against Staphylococcus aureus [1] is 1 µg/mL (≈ 2.52 µM); with Staphylococcus aureus [2] it was 1 µg/mL (≈ 2.52 µM); with Staphylococcus aureus [3] it was 4 µg/mL (≈ 10.1 µM); in the experiment with Staphylococcus aureus [4], 4 µg/mL (≈ 10.1 µM); in the experiment on Staphylococcus aureus [5], 4 µg/mL (≈ 10.1 µM); against Staphylococcus aureus [6] it was 4 µg/mL (≈ 10.1 µM). The MIC in [7] was 4 µg/mL (≈ 10.1 µM); against Escherichia coli, over 16 µg/mL; in the experiment on Klebsiella pneumoniae it was over 16 µg/mL; with Acinetobacter baumannii [8] it was over 16 µg/mL; against Acinetobacter baumannii [9] it was over 16 µg/mL.
`CCCC[C@H](CN(O)C=O)C(=O)N1CCC[C@H]1c1nnc(-c2ccc(-c3ccccc3)cc2)s1`: the MIC against Staphylococcus aureus [1] came to 1 µg/mL (≈ 2.09 µM); with Staphylococcus aureus [2] it was 1 µg/mL (≈ 2.09 µM); with Staphylococcus aureus [3], 2 µg/mL (≈ 4.18 µM); with Staphylococcus aureus [4] it was 2 µg/mL (≈ 4.18 µM); against Staphylococcus aureus [5] it was 2 µg/mL (≈ 4.18 µM); in the experiment on Staphylococcus aureus [6] it was 2 µg/mL (≈ 4.18 µM). The MIC (in experiment [7]; in the experiment with Escherichia coli; against Klebsiella pneumoniae; in the experiment with Acinetobacter baumannii [8]; against Acinetobacter baumannii [9]) was over 16 µg/mL each time.
Consider `CCCC[C@H](CN(O)C=O)C(=O)N1CCC[C@H]1c1nnc(C2CCCCC2)s1`, for which the MIC in the experiment with Staphylococcus aureus [1] amounted to 0.5 µg/mL (≈ 1.22 µM); against Staphylococcus aureus [2] it was 1 µg/mL (≈ 2.45 µM); against Staphylococcus aureus [3], 2 µg/mL (≈ 4.9 µM); against Staphylococcus aureus [4], 2 µg/mL (≈ 4.9 µM); in the experiment with Staphylococcus aureus [5] it was 2 µg/mL (≈ 4.9 µM); in the experiment with Staphylococcus aureus [6], 2 µg/mL (≈ 4.9 µM). Moreover, the MIC in experiment [7] was 4 µg/mL (≈ 9.79 µM); with Escherichia coli, over 16 µg/mL; against Klebsiella pneumoniae, over 16 µg/mL; against Acinetobacter baumannii [8], over 16 µg/mL; against Acinetobacter baumannii [9], over 16 µg/mL.
In the case of `CCCC[C@H](CN(O)C=O)C(=O)N1CCC[C@H]1c1nnc(-c2ccc(C#N)cc2F)s1`, the MIC with Staphylococcus aureus [1] was 0.125 µg/mL (≈ 0.281 µM); against Staphylococcus aureus [2] it was 0.125 µg/mL (≈ 0.281 µM); against Staphylococcus aureus [3] it was 0.5 µg/mL (≈ 1.12 µM); in the experiment on Staphylococcus aureus [4], 0.25 µg/mL (≈ 0.561 µM); against Staphylococcus aureus [5], 0.125 µg/mL (≈ 0.281 µM); against Staphylococcus aureus [6], 0.125 µg/mL (≈ 0.281 µM). Also, the MIC in experiment [7] was 2 µg/mL (≈ 4.49 µM); in the experiment with Escherichia coli, 8 µg/mL (≈ 18 µM); in the experiment with Klebsiella pneumoniae, over 16 µg/mL; against Acinetobacter baumannii [8], over 16 µg/mL; against Acinetobacter baumannii [9], 8 µg/mL (≈ 18 µM).
As to `CCCC[C@H](CN(O)C=O)C(=O)N1CCC[C@H]1c1nnc(-c2ccc(C)cc2)s1`, the MIC with Staphylococcus aureus [1] was 0.5 µg/mL (≈ 1.2 µM); against Staphylococcus aureus [2], 1 µg/mL (≈ 2.4 µM); in the experiment on Staphylococcus aureus [3], 1 µg/mL (≈ 2.4 µM); against Staphylococcus aureus [4], 1 µg/mL (≈ 2.4 µM); with Staphylococcus aureus [5], 1 µg/mL (≈ 2.4 µM); against Staphylococcus aureus [6] it was 1 µg/mL (≈ 2.4 µM). The MIC in [7] was 2 µg/mL (≈ 4.8 µM); in the experiment with Escherichia coli it was 16 µg/mL (≈ 38.4 µM); in the experiment with Klebsiella pneumoniae it was over 16 µg/mL; against Acinetobacter baumannii [8] it was over 16 µg/mL; in the experiment with Acinetobacter baumannii [9] it was 8 µg/mL (≈ 19.2 µM).
